# Results reported in ChEMBL document CHEMBL1201862, “PubChem BioAssay data set” (2004).
# Active and inactive are the calls of the source. For most assays here, no stated cut-off is given here; in the data, actives have a measured AC50 and inactives only a lower limit.
# Key:
# Type in all cases: functional
# [1] = reduction of Shn3 3'UTR-driven luciferase in osteoblasts – cell-based, Clone20 osteoblasts, firefly luciferase, cherry-picked, dose response (AID 624132);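 further: firefly luciferase luminescence from reporter carrying the Shn3 3'UTR in osteoblasts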
# [2] = loss of viability in HepG2 cells – cell-based, CellTiter-Glo, cherry-picked, cytotoxicity control for Shn3 inhibitor project, dose response (AID 624134)
# [3] = biological target: T1, Replicative DNA helicase DnaB (Mycobacterium tuberculosis, UniProt P9WMR3); test: DnaB intein splicing inhibitors, dose response, biochemical, cell-free fluorescence (AID 449749)
# T1 sequence (P9WMR3 whole entry): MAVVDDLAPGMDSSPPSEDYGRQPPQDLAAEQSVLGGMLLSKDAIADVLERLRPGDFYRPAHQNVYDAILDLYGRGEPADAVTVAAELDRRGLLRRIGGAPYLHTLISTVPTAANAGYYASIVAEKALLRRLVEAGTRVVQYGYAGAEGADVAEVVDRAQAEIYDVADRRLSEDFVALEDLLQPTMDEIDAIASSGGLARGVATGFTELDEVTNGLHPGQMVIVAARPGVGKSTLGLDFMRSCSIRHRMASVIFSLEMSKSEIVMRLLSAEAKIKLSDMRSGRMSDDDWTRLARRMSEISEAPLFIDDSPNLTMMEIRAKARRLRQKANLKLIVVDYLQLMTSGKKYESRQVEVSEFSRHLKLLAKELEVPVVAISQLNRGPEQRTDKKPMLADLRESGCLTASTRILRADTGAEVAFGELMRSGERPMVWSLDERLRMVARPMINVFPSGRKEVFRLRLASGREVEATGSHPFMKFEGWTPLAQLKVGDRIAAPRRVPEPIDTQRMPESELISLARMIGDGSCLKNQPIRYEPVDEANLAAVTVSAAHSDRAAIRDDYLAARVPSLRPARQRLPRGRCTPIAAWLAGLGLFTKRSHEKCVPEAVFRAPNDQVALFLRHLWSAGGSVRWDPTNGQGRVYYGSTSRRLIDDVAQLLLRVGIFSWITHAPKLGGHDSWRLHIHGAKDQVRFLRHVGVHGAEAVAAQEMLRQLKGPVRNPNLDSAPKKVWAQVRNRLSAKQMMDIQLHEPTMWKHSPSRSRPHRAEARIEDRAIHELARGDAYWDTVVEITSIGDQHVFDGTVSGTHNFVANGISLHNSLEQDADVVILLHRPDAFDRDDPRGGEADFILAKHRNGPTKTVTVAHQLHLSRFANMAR
# [4] = biological target: T2, Apoptotic protease-activating factor 1 (Homo sapiens, UniProt O14727)
# T2 sequence (O14727 whole entry): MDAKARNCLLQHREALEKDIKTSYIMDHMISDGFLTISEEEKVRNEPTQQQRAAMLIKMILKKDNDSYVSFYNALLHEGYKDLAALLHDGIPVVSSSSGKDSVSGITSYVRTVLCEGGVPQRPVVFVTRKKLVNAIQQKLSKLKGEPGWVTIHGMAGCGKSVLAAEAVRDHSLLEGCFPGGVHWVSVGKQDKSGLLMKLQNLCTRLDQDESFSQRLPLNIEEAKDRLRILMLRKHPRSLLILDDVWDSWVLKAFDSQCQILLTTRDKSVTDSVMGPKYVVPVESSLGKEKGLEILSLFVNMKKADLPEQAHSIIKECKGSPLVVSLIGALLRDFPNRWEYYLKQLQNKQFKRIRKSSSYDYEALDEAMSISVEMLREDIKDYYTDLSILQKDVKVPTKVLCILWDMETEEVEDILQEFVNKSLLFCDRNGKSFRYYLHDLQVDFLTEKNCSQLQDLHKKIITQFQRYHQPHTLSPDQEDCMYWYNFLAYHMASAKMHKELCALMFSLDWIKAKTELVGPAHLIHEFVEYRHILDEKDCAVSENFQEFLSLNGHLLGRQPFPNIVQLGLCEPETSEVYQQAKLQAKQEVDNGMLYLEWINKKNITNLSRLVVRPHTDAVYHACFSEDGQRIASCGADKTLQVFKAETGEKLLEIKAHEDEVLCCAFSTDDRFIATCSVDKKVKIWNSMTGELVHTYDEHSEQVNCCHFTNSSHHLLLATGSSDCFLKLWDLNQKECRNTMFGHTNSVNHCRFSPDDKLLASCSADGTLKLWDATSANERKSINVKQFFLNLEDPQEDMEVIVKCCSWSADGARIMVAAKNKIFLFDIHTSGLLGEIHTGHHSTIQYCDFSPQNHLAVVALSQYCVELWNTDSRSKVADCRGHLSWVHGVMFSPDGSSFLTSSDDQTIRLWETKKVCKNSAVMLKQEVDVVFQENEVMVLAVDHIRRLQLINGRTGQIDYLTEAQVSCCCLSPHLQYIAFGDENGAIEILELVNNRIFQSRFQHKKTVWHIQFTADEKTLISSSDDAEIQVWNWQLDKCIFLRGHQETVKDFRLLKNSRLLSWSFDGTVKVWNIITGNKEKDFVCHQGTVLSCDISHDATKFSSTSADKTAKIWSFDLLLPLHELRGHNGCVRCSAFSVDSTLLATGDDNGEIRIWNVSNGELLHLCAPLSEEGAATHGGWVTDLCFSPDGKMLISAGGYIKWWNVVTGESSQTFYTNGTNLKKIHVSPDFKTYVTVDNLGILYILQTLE
# Protein RecA = biological target: T3, Protein RecA (Mycobacterium tuberculosis, UniProt P9WHJ3); test: Fluorescence Cell-Free Homogeneous Dose Retest to Identify Inhibitors of RecA-Intein Splicing Activity. [Related pubchem assays (depositor defined):AID2097, AID2223, AID489010, AID492950]
# T3 sequence (P9WHJ3 whole entry): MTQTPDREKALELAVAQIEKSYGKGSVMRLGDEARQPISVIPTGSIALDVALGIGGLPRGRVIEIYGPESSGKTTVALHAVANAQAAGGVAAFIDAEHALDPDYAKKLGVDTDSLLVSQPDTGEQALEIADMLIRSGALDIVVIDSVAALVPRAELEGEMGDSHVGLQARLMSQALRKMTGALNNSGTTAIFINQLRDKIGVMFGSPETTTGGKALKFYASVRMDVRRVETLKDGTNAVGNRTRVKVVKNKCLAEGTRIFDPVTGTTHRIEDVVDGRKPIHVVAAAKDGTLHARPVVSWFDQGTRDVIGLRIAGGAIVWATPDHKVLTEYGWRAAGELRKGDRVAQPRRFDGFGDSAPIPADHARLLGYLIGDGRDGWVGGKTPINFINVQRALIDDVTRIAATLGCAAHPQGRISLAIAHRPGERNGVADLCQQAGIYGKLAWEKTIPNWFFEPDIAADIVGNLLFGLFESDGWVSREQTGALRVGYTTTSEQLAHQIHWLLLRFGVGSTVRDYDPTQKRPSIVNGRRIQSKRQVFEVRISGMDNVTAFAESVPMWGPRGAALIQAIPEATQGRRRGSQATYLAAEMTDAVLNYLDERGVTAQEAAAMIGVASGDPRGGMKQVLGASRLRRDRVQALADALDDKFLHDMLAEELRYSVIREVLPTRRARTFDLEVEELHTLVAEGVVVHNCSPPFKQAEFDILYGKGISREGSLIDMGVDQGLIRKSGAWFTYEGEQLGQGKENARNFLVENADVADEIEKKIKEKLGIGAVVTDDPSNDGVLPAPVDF
SMILES,AC50 [1],AC50 [2],AC50 [3],IC50 [4],EC50 (Protein RecA)
CC(=O)NC(c1ccc2ccccc2c1)c1ccc2cccnc2c1O (stereo not drawn),422 nM (active),867 nM (active),,,
CCOC(=O)C1=C(c2ccccc2)N=C(N)NC1c1ccc(OCc2ccc(Cl)cc2)c(OC)c1 (stereo not drawn),,,8680 nM (active),14600 nM (active),14300 nM (active)
CCOC(=O)c1c(C)[nH]c2c1-c1ccccc1C(=O)C2=O,496 nM (active),3960 nM (active),1340 nM (active),,1820 nM (active)
O=[N+]([O-])c1c(NCCO)cc(Sc2nc3ccccc3s2)c2nonc12,1640 nM (active),32100 nM (active),1050 nM (active),,722 nM (active)
O=C(c1ccccc1)c1coc2c1C(=O)c1ccccc1C2=O,,,,15000 nM (active),
CCOC(=O)c1c(C)oc2c1c(/C=N/CCC(=O)O)c(O)c1ccccc12,,,> 380000 nM (inactive),12300 nM (active),390 nM (active)
COc1ccc2c(c1)CCC(/C=N/c1ccc3c(c1)OCO3)=C2O,,,,17400 nM (active),
